From article PMC3610419, “A Randomized, Double-Blind Placebo Controlled Trial of Balapiravir, a Polymerase Inhibitor, in Adult Dengue Patients” (The Journal of Infectious Diseases, 2012)
Where two headings read alike, the source gives them in different places.

Columns and labels:
[1] = tested on: DENV-1, DENV-2, and DENV-4; assay: Activity against DENV in primary human macrophages; format: cell-based; details: Dengue virus, Macrophage, DENV-1, DENV-2, DENV-4, data not shown, read-out: mean EC50 range
[2] = clinical; details: human, in vivo
Experimental: Randomization to treatment group was by computer-generated randomization sequencing in blocks of 2. Balapiravir was formulated in a 500-mg film-coated tablet. The placebo consisted of an identical looking tablet containing excipient only. All balapiravir and placebo tablets were provided by F. Hoffmann-La Roche. Patients in cohort 1 (n = 20) received 1500 mg of balapiravir or an identical placebo orally every 12 hours for 5 days (10 doses). The decision to dose escalate (to 3000 mg) was made after review of the partially unblinded group mean clinical and laboratory data acquired from patients in cohort 1. Patients in cohort 2 (n = 44) received 3000 mg of balapiravir or placebo orally twice a day for 5 days (10 doses).
Serum samples for pharmacokinetic investigations were collected at time 0 (predose) and 2, 4, 8, and 12 hours postdose on days 1 and 5. Pharmacokinetics parameters were calculated using noncompartmental methods.

[3] = tested on: DENV-1, DENV-2, and DENV-4; assay: Activity against DENV in dendritic cells; format: cell-based; details: Dengue virus, Dendritic cell, DENV-1, DENV-2, DENV-4, data not shown, read-out: mean EC50 range
[4] = cited from earlier work
[5] = tested on: DENV reference strains and clinical isolates; assay: Inhibition of DENV replication in Huh-7 cells, summary over all strains; format: cell-based, dengue virus
Experimental: The mean and standard deviation shown represent 3 independent (different date) experiments for each virus tested. Huh-7 cells were plated in 96-well plate at 10,000 cells/well in DMEM containing 10 % FBS in 100 μl volume one day prior to set up of the assay. The following day the medium was aspirated off and diluted virus at a multiplicity of infection of 0.5 or media was added to the assay and control wells, respectively. The virus was allowed to attach to the cells for two hours at 37°C in a humidified 5% C02 atmosphere while the dilutions of the test molecule were prepared. Test molecules (or medium as a control) were added after aspiration of the virus-containing media 2 hours post-infection in 3-fold dilutions at a final DMSO concentration of 1%. After 48 hrs, cells were washed and cellular RNA were isolated. In this study, we used a quantitative real time PCR method to quantitate dengue viral RNA in Huh-7 in the presence of inhibitors. Viral RNA and endogenous 18S rRNA control (Applied Bio System) was quantified by a real time PCR assay using the following primers. […] Taqman was performed in duplicate. […] First ΔCt was calculated by subtracting 18S rRNA CT value from dengue RNA CT value. ΔCts from duplicate taqman assay were averaged. […] Relative quantification was calculated using the following formula. Relative quantification = 2^-averageΔΔCT. […]

[6] = tested on: DENV-4; assay: Inhibition of DENV replication in Huh-7 cells, viral RNA by quantitative real time PCR; format: cell-based, dengue virus; details: 48 hrs, mean ± SD of 3 experiments
Experimental: (§1) ^a Each experiment was done in duplicate. The mean and standard deviation shown represent 3 independent (different date) experiments for each virus tested. Huh-7 cells were plated in 96-well plate at 10,000 cells/well in DMEM containing 10 % FBS in 100 μl volume one day prior to set up of the assay. The following day the medium was aspirated off and diluted virus at a multiplicity of infection of 0.5 or media was added to the assay and control wells, respectively. The virus was allowed to attach to the cells for two hours at 37°C in a humidified 5% C02 atmosphere while the dilutions of the test molecule were prepared. Test molecules (or medium as a control) were added after aspiration of the virus-containing media 2 hours post-infection in 3-fold dilutions at a final DMSO concentration of 1%. After 48 hrs, cells were washed and cellular RNA were isolated. In this study, we used a quantitative real time PCR method to quantitate dengue viral RNA in Huh-7 in the presence of inhibitors. Viral RNA and endogenous 18S rRNA control (Applied Bio System) was quantified by a real time PCR assay using the following primers. Dengue Reverse (Common to all the serotypes): 5’-[…]-3’, Dengue forward serotype 1: 5’-[…]-3’, Dengue forward serotype 2 or 3: 5’-[…]-3’, Dengue forward serotype 4: 5’-[…] -3’ and Dengue probe (Common to all the serotypes): 5'-/56-FAM/[…]/3BHQ_1/-3'. Taqman was performed in duplicate. IC50 was obtained using the following calculations. First ΔCt was calculated by subtracting 18S rRNA CT value from dengue RNA CT value. ΔCts from duplicate taqman assay were averaged. Then ΔΔCt was obtained by subtracting the average ΔCt of non-treated sample from the treated sample average ΔCt. Relative quantification was calculated using the following formula. Relative quantification = 2^-averageΔΔCT. The 50% inhibitory concentrations (EC50) were calculated using the sigmoidal dose-response model in Microsoft XLfit.

[7] = tested on: DENV-2; assay: as above; format: cell-based, dengue virus; details: 48 hrs, mean ± SD of 3 experiments
Experimental: as §1

[8] = tested on: DENV-3; assay: as above; format: cell-based, dengue virus; details: 48 hrs, mean ± SD of 3 experiments
Experimental: as §1

[9] = tested on: DENV-1; assay: as above; format: cell-based, dengue virus; details: 48 hrs, mean ± SD of 3 experiments
Experimental: as §1

## [N-]=[N+]=N[C@]1(CO)O[C@@H](n2ccc(N)nc2=O)[C@H](O)[C@@H]1O [R1479, 4′-azidocytidine]
[1]
  EC50: 1.3 to 3.2 µM
[2]
  Cmax: 25 to 145 µM
  mean Cmin concentrations that may need to be exceeded for antiviral effects on DENV: 6.7 to 39 µM
[2]; 1500 mg, Cmax
  Cmax: 16.5 µM
[2]; 1500 mg, plasma Cmax of R1479
  Cmax: > 6 µM
[2]; 3000 mg, Cmax
  Cmax: 23.9 µM
[3]
  EC50: 5.2 to 6 µM
[4]; 500 mg balapiravir twice daily
  Cmax above the HCV replicon EC50: > 5 fold
[4]; 1500 mg balapiravir twice daily
  mean plasma trough level above the human serum adjusted HCV replicon EC50: 3.5 fold
[4]; 3000 mg balapiravir twice daily
  ratio of mean plasma trough level to human serum adjusted HCV replicon EC50: 4.9
[4]; 4500 mg balapiravir twice daily
  ratio of mean plasma trough level to human serum adjusted HCV replicon EC50: 7.8
[5]; Dengue virus, Huh-7, read-out: mean half maximal effective concentration (EC50) values
  EC50: 1.9 to 11 µM

## C#C[C@@]1(O)[C@H](O)[C@@H](CO)O[C@H]1n1ccc2c(N)ncnc21 [NITD008, reference compound]
[6]; DENV-4 strain H241, Huh-7 cells
  IC50: 0.6 ± 0.1 µM
[6]; DENV-4 strain Phili/1567, Huh-7 cells
  IC50: 0.1 ± 0.1 µM
[6]; DENV-4 strain Senga/DA, Huh-7 cells
  IC50: 0.3 ± 0.1 µM
[6]; DENV-4 strain Venz/JQ, Huh-7 cells
  IC50: 0.2 ± 0.1 µM
[7]; DENV-2 strain 32/0102 (clinical isolate), Huh-7 cells
  IC50: 0.5 ± 0.2 µM
[7]; DENV-2 strain 32/0140 (clinical isolate), Huh-7 cells
  IC50: 0.3 µM
[7]; DENV-2 strain 33/0051 (clinical isolate), Huh-7 cells
  IC50: 0.4 ± 0.2 µM
[7]; DENV-2 strain 33/0178 (clinical isolate), Huh-7 cells
  IC50: 0.3 ± 0.2 µM
[7]; DENV-2 strain Th36, Huh-7 cells
  IC50: 0.5 ± 0.1 µM
[8]; DENV-3 strain 33/0072 (clinical isolate), Huh-7 cells
  IC50: 0.5 ± 0.2 µM
[8]; DENV-3 strain 33/0096 (clinical isolate), Huh-7 cells
  IC50: 0.3 ± 0.1 µM
[8]; DENV-3 strain 33/0177 (clinical isolate), Huh-7 cells
  IC50: 0.3 µM
[8]; DENV-3 strain 33/0253 (clinical isolate), Huh-7 cells
  IC50: 0.6 µM
[8]; DENV-3 strain H87, Huh-7 cells
  IC50: 0.4 ± 0.1 µM
[9]; DENV-1 strain FR28 (clinical isolate)
  IC50: 0.5 ± 0.1 µM
[9]; DENV-1 strain FR34 (clinical isolate)
  IC50: 0.5 ± 0.2 µM
[9]; DENV-1 strain FR37 (clinical isolate)
  IC50: 0.4 ± 0.1 µM
[9]; DENV-1 strain FR42 (clinical isolate)
  IC50: 0.5 ± 0.2 µM
[9]; DENV-1 strain Thsman
  IC50: 0.4 ± 0.1 µM
[5]; Huh-7 cells, range over DENV strains, read-out: Mean values of median inhibitory concentration (IC50)
  IC50: 0.1 to 0.6 µM
